Experimental data published in US20230090742A1, “AMINOPYRIMIDINYLAMINOBENZONITRILE DERIVATIVES AS NEK2 INHIBITORS” (Sumitomo Pharma Oncology, Inc., priority 2020, published 2023).
Read-outs that look alike come from different tables or passages of the source.

Assays:
SW480 cells = test: Cell cycle analysis in SW480 cells by flow cytometry; type: cell-based; conditions: 24-hour treatment
Experimental: (§1) Reagents. MDA-MB-231 (Breast adenocarcinoma, triple negative breast cancer) and SW480 (colorectal adenocarcinoma, stem-like subtype) cells were purchased from ATCC and cultured as per manufacturer's instruction. Thymidine (Sigma, T9250) stock solution (100 mM) was prepared in PBS. 2′-Deoxycytidine (Sigma, D897) stock solution (240 mM) was prepared in distilled H2O. Nocodazole (Selleck Chemicals, S2775) stock solution (5 mg/mL) was made in dimethyl sulfoxide (DMSO). FxCycle Far Red stain (F10348) for cell cycle analysis was purchased from Thermo Fisher Scientific.
Flow Cytometry Analysis. The SW480 cells were treated with NEK2 inhibitors at a concentration ranging from 0-1000 nM for 24 hours. After 24 hours of treatment, cells were detached and dissociated using 0.25% trypsin. After trypsinization, cells were washed with ice-cold PBS and fixed in 4% paraformaldehyde (PFA) at room temperature for 20 minutes. After fixation, cells were permeabilized by incubating in 90% methanol for 30 minutes on ice. Subsequently, cells were stained with FITC conjugated anti-EZH2 antibody (1:50, Cell Signaling technology) for 2 hours at room temperature and FxCycle Far Red stain (Thermo Fisher Scientific) for visualization of EZH2 expression and cell cycle, respectively. […] A minimum of 100,000 events were analyzed in each sample, and the results were evaluated using FlowJo software. […]

[1] = target: T1, Aurora A kinase (Accession No. NP-940839) (Homo sapiens, UniProt O14965); test: HotSpot Kinase Assay, Aurora A; type: biochemical
T1 construct: purchased ThermoFisher Scientific (Invitrogen)
T1 sequence (O14965 1-403): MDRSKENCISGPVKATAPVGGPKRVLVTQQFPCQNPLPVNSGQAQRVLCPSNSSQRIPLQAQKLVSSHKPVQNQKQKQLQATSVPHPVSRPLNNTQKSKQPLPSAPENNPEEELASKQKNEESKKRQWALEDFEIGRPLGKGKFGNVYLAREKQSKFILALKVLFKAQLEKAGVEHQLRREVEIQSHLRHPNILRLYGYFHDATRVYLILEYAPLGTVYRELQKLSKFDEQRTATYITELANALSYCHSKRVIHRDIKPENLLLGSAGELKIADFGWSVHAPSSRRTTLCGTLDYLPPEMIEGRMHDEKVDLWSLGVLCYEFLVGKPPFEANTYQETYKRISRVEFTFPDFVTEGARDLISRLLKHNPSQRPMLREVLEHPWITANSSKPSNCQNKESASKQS
Experimental: (§2) In this example, the compounds described herein were tested for their inhibitory activity against NEK2 and/or Aurora A using the HotSpot™ Kinase Assay (Reaction Biology Corp.). The assay was performed according to the manufacturer's protocol, as detailed below. The NEK2 kinase (Accession No. NP-002488) and Aurora A kinase (Accession No. NP-940839) for use in these assays was sourced from ThermoFisher Scientific (Invitrogen).
(§3) The base Reaction Buffer used in this experiment contained the following: 20 mM Hepes (pH 7.5), 10 mM MgCl2, 1 mM EGTA, 0.02% Brij™-35, 0.02 mg/ml BSA, 0.1 mM Na3VO4, 2 mM DTT, and 1% DMSO. The required cofactors were added individually to each kinase reaction.
(§4) Testing compounds were dissolved in 100% DMSO to a specific concentration. The serial dilution was conducted by Integra Viaflo Assist in DMSO.
(§5) The substrate was prepared in freshly prepared Reaction Buffer. The required cofactors were delivered to the substrate solution described above. NEK2 kinase or Aurora A kinase was delivered to the substrate solution and gently mixed. Next, the compounds in 100% DMSO were transferred to the kinase reaction mixture by Acoustic technology (Echo550; nanoliter range) and incubated for 20 min at room temperature. ^33P-ATP (Specific activity 10 μCi/μl) was delivered into the reaction mixture to initiate the reaction. The reaction was incubated for 2 hours at room temperature. Radioactivity was then detected by the filter-binding method. Kinase activity data were expressed as the percent remaining kinase activity in test samples compared to vehicle (dimethyl sulfoxide) reactions. IC50 values and curve fits were obtained using Prism (GraphPad Software).

NEK2 = target: T2, NEK2 (Homo sapiens, UniProt P51955); test: NanoBRET Target Engagement Intracellular Kinase Assay for NEK2 in transfected HEK293 cells; type: cell-based
T2 construct: expressed in transfected cells; host or cells: HEK293
T2 sequence (P51955 1-445): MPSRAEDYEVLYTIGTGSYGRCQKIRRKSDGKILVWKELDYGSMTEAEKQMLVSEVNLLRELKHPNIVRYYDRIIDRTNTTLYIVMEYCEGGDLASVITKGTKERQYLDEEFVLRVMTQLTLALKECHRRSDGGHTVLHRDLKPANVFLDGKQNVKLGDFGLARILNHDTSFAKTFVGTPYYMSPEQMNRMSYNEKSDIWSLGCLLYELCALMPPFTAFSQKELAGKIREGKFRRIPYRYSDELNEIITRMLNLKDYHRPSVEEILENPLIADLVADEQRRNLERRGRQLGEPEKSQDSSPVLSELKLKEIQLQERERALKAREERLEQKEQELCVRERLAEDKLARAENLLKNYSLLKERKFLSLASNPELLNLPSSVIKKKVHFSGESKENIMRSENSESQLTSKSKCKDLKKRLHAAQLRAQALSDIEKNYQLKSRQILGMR
Experimental: In this example, the compounds described herein were tested for their inhibitory activity against NEK2 using a model of in vivo activity by the NanoBRET™ Target Engagement Intracellular Kinase Assay (Reaction Biology Corp.). The assay was performed according to the manufacturer's protocol, as detailed below.
HEK293 cells were cultivated (70-80% confluence) prior to the assay. The sample was trypsinized and HEK293 cells were collected.
To prepare lipid: DNA complexes, a 10 μg/ml solution of DNA in Opti-MEM without serum was prepared that consisted of the following ratios of carrier DNA and DNA encoding NanoLuc® fusion: 9.0 μg/ml of Transfection Carrier DNA, 1.0 μg/ml of NanoLuc fusion vector DNA and 1 ml of Opti-MEM without phenol red. The solution was mixed thoroughly. 30 μl of FuGENE HD Transfection Reagent was added into each milliliter of DNA mixture to form lipid: DNA complex. The sample was mixed by inversion 10 times and then incubated at ambient temperature for 20 minutes to allow complexes to form. In a sterile, conical tube, 1 part of lipid:DNA complex was mixed with 20 parts of HEK293 cells in suspension. The resulting sample was mixed gently by inversion 5 times. The cell and lipid: DNA complex was dispensed into a sterile tissue culture dish and incubated for 22-24 hours.
Each test compound is delivered from the compound source plate to the wells of 384-well white NBS plate by Echo 550.
Step 3. Preparation of Cells with NanoBRET™ Tracer K5 Reagent:
The medium was removed from the dish with the transfected HEK293 cells via aspiration, trypsinized and cells were allowed to dissociate from the dish. Trypsin was neutralized using medium containing serum and centrifuged at 200×g for 5 minutes to pellet the cells. The cell density was adjusted to 2×10^5 cells/ml in Opti-MEM without phenol red.
The Complete 20× NanoBRET™ Tracer K5 Reagent with Tracer Dilution Buffer was prepared according to the manufacturer's instructions. One part of Complete 20× NanoBRET™ Tracer Reagent was added to 20 parts of cells in the tube. The sample was mixed gently by inversion 10 times. Next, the cell suspension was dispensed into white, 384-well NBS plates with a final tracer K5 concentration of 2 μM. The plate was incubated at 37° C., 5% CO2 for 1 hour. A separate set of samples without tracer were prepared for background correction steps.
The plate was removed from the incubator and equilibrated to room temperature for 15 minutes. The 3× Complete Substrate plus Inhibitor Solution in Assay Medium (Opti-MEMR I Reduced Serum Medium, no phenol red) was prepared just before measuring BRET. The 3× Complete Substrate plus Inhibitor Solution was added to each well of the 384-well plate and incubated for 2-3 minutes at room temperature. The donor emission wavelength (460 nm) and acceptor emission wavelength (600 nm) were measured using the Envision 2104 plate reader.
To generate raw BRET ratio values, the acceptor emission value (600 nm) was divided by the donor emission value (460 nm) for each sample. To correct for background, the BRET ratio in the absence of tracer (average of no-tracer control samples) was subtracted from the BRET ratio of each sample.
BRET Ratio=[(Acceptor sample÷Donor sample)−(Acceptor no-tracer control÷Donor no-tracer control)]

[2] = target: T3, NEK2 kinase (Accession No. NP-002488) (Homo sapiens, UniProt P51955); test: HotSpot Kinase Assay, NEK2; type: biochemical
T3 construct: purchased ThermoFisher Scientific (Invitrogen)
T3 sequence (P51955 1-445): T2 sequence (P51955 1-445)
Experimental: as §2, §3, §4, §5

EZH2 expression = test: Flow cytometry analysis for EZH2 expression in SW480 cells; type: cell-based; conditions: Homo sapiens, 24 hours treatment, 0-1000 nM, haploid and diploid cells, read-out: dose dependent decrease in EZH2 expression, IC50
Experimental: as §1
Antibodies. Polyclonal antibodies to phosphorylated-Ser55 Hec1 (PA5-85846; 1:1000) were purchased from ThermoFisher Scientific, and Phospho-Thr320 PP1α (2581S; 1:1000) and Total PP1α (2582S; 1:1000) were purchased from Cell Signaling Technologies. Monoclonal antibodies to Phospho-Ser10 Histone H3 (53348S; 1:1000), Total Histone H3 (14269; 1:5000), and EZH2-FITC (30233, 1:50) antibodies were purchased from Cell Signaling Technologies; Total Hec1 (ab109496; 1:10000) was purchased from Abcam; and Total NEK2 (sc-55601; 1:200) and GAPDH (sc-365062; 1:1000-2000) antibodies were purchased from Santa Cruz Technologies.
Flow Cytometry Analysis. […] A minimum of 100,000 events were analyzed in each sample, and the results were evaluated using FlowJo software. […]

[3] = comparator compounds, read-out: Aurora A Activity
[4] = comparator compounds, read-out: NEK2 Activity HotSpot Assay
[5] = HotSpot Kinase Assay, read-out: Aurora A IC50
[6] = NEK2 target engagement, read-out: NanoBRET IC50
[7] = HotSpot Kinase Assay, read-out: NEK2 IC50

| Structure (SMILES) | IC50 [1, 3] [nM] | IC50 [1, 5] [nM] | IC50 (NEK2; [6]) [nM] | IC50 [2, 7] [nM] | also measured |
| --- | --- | --- | --- | --- | --- |
| CCN(CCCOc1ccc2c(Nc3cc(CC(=O)Nc4cccc(F)c4)n[nH]3)ncnc2c1)CCOP(=O)(O)O [AZD-1152] | – | – | – | – | cell cycle distribution (SW480 cells): significantly arrested cells in G2-M phase |
| CN1CCN(Cc2ccc(Nc3ncc(Cl)c(Nc4ccc(C#N)c(OCc5ccccc5F)c4)n3)cc2)CC1 [CF-01, 4-((5-chloro-2-((4-((4-methylpiperazin-1-yl)methyl)phenyl)-amino)-pyrimidin-4-yl)amino)-2-((2-fluorobenzyl)-oxy)benzonitrile, reference compound] | 796 | – | – | – | IC50 (NEK2; comparator compounds, read-out: NEK2 Activity NanoBRET assay): 264 nM; IC50 [2, 4]: > 1000 nM |
| CN1CCN(c2ccc(Nc3ncc(Cl)c(Nc4ccc(C#N)c(OCc5ccccc5F)c4)n3)cc2)CC1 [CF-02, 4-((5-chloro-2-((4-(4-methylpiperazin-1-yl)phenyl)-amino)-pyrimidin-4-yl)amino)-2-((2-fluorobenzyl)-oxy)benzonitrile, reference compound] | 313 | – | – | – | IC50 [2, 4]: 264 nM |
| CN1CCN(c2ccc(Nc3ncc(Cl)c(Nc4ccc(C(N)=O)c(OCc5ccccc5F)c4)n3)cc2)CC1 [CF-03, 4-((5-chloro-2-((4-(4-methylpiperazin-1-yl)phenyl)amino)-pyrimidin-4-yl)-amino)-2-((2-fluorobenzyl)oxy)benzamide, reference compound] | 0.1 | – | – | – | – |
| N#Cc1c(Nc2nc(Nc3ccc(N4CCOCC4)cc3)ncc2Cl)cccc1OCc1ccccc1F [Compound 2, 2-((5-chloro-2-((4-morpholinophenyl)amino)pyrimidin-4-yl)amino)-6-((2-fluorobenzyl)oxy)benzonitrile] | – | > 1000 | > 150 | ≤ 5 | – |
| COc1cnc(Nc2ccc(N3CCNCC3)cc2)nc1Nc1cccc(OCc2ccccc2F)c1C#N [Compound 10, 2-((2-fluorobenzyl)oxy)-6-((5-methoxy-2-((4-(piperazin-1-yl)phenyl)amino)pyrimidin-4-yl)amino)benzonitrile] | – | > 1000 | 50 to 150 | ≤ 5 | – |
| Cc1cnc(Nc2ccc(N3CCNCC3)cc2)nc1Nc1cccc(OCc2ccccc2F)c1C#N [Compound 12, 2-((2-fluorobenzyl)oxy)-6-((5-methyl-2-((4-(piperazin-1-yl)phenyl)amino)pyrimidin-4-yl)amino)benzonitrile] | – | – | ≤ 50 | ≤ 5 | IC50 (EZH2 expression): 214 nM |
| CN(C)CCn1cc(Nc2ncc(Cl)c(Nc3cccc(OCc4ccccc4F)c3C#N)n2)cn1 [Compound 32, 2-((5-chloro-2-((1-(2-(dimethylamino)ethyl)-1H-pyrazol-4-yl)amino)pyrimidin-4-yl)amino)-6-((2-fluorobenzyl)oxy)benzonitrile] | – | > 1000 | – | > 15 | – |
| O=C(O)[C@]1(Cc2cccc(Nc3nccs3)n2)CC[C@@H](Oc2cccc(Cl)c2F)CC1 [MK-5108] | – | – | – | – | cell cycle distribution (SW480 cells): significantly arrested cells in G2-M phase |
